Test results from patent US10800789B2, “Antiviral compounds” (Gilead Pharmasset LLC, priority 2012, dated 2020).
pEC50: −log10 of the molar value. Where two headings read alike, the source gives them in different places.

Assays:
[1] = tested on: stable HCV 1b RLuc replicon cells (dicistronic genotype 1b Con1 replicon); experiment: Renilla luciferase HCV replicon reporter assay, genotype 1b; type: cell-based; details: Hepatitis C virus, 72 h; for pEC50: stable 1b Con1 RLuc replicon cells, 72 hours, read-out: 1b
Summary of the method: (§1)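 72 h compound exposure (3-fold dilutions from 10 mM DMSO stocks) of replicon cells: stable dicistronic RLuc 1a H77, 1b Con1, 2a JFH-1 (NS5A L31); J6-NS5A chimera in JFH-1 (M31), transient in Huh-Lunet or stable. Renilla luciferase read-out, non-linear regression → EC50. DMSO negative control.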

[2] = tested on: stable HCV 1a RLuc replicon cells (dicistronic genotype 1a H77 replicon); experiment: Renilla luciferase HCV replicon reporter assay, genotype 1a; type: cell-based; details: Hepatitis C virus, 72 h, stable 1a H77 RLuc replicon cells
Summary of the method: as §1

[3] = tested on: Q30R in genotype 1a NS5A (1a Pi-Rluc replicon, Huh-7-derived cured-51 cells); experiment: Replicon assay against resistance mutant 1a Q30R; type: cell-based, HCV; details: Hepatitis C virus; for pEC50: read-out: 1a Q30R; for EC50: read-out: 1a Q30R (nM)
Summary of the method: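 Q30R introduced by site-directed mutagenesis into the 1a Pi-RLuc replicon; replicon RNA transiently transfected into cured-51 cells. Cells treated with 3-fold serially diluted compound for 72 h, then lysed and Renilla luciferase measured; EC50 by non-linear regression.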

[4] = tested on: stable HCV 2a JFH-1 Rluc replicon cells (L31 present in NS5A); experiment: Renilla luciferase HCV replicon reporter assay, genotype 2a JFH-1; type: cell-based; details: for EC50: read-out: 2a JFH (nM), genotype 2a JFH-1 replicon (L31 in NS5A), stable cells
Summary of the method: as §1

[5] = tested on: NS5A chimeric genotype 2a JFH-1 replicon with genotype 2a J6 strain NS5A gene (M31 present); experiment: Replicon assay, genotype 2a J6 NS5A chimera; type: cell-based, HCV; details: for EC50: read-out: 2a J6 (t) (nM), genotype 2a J6 NS5A chimeric replicon (M31), transiently transfected (t) into Huh-Lunet cells
Summary of the method: as §1

[6] = tested on: NS5A chimeric genotype 2a JFH-1 replicon with genotype 2b MD2b-1 strain NS5A gene (M31 present); experiment: Replicon assay, genotype 2b NS5A chimera; type: cell-based, HCV
Summary of the method: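 EC50 was fitted by non-linear regression to Renilla luciferase signal after 72 h of exposure to 3-fold serially diluted compound (10 mM DMSO stocks). Controls were DMSO (none) and ITMN-191 above 100×EC50 (full). Chimeric 2a replicons were used either stable or transiently transfected into Huh-Lunet cells.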

[7] = tested on: NS5A chimeric genotype 1b Con1 replicon with genotype 3a S52 strain NS5A gene; experiment: Replicon assay, genotype 3a NS5A chimera; type: cell-based, HCV
[8] = tested on: NS5A chimeric genotype 1b Con1 replicon with genotype 4a ED43 strain NS5A gene; experiment: Replicon assay, genotype 4a NS5A chimera; type: cell-based, HCV; details: Hepatitis C virus; for EC50: read-out: 4a (s) (nM), genotype 4a NS5A chimeric replicon, stable replicon cells (s); for pEC50: read-out: 4a (s), (s), activity range
[9] = IV and PO single dose pharmacokinetic studies in SD rats; type: in vivo, male Sprague-Dawley (SD) rats; details: male SD rats, PO 2 mg/kg vs IV infusion 1 mg/kg; for bioavailability: Sprague-Dawley, rat, plasma, read-out: Rat % F
Summary of the method: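 Fasted male Sprague-Dawley rats (250-300g, n=3/group) were given 1 mg/kg IV as a 30-min jugular infusion (5% ethanol/35% PEG 400/water pH 2.0) or 2 mg/kg by oral gavage (5% ethanol/55% PEG 400/citrate pH 2.2). Plasma was sampled to 24 h and analysed by LC/MS/MS. Non-compartmental parameters were derived, and %F was calculated from the oral/IV AUC ratio.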

[10] = Hepatitis C virus, read-out: 2a JFH, stable 2a JFH-1 Rluc replicon cells, L31 in NS5A, activity range
[11] = Hepatitis C virus, read-out: 2a J6 (t), transiently transfected (t) into Huh-Lunet cells, activity range
[12] = Hepatitis C virus, 2BS, read-out: 2b (s), stably replicating replicon cells (s), activity range
[13] = Hepatitis C virus, read-out: 2b (s) (nM), genotype 2b MD2b-1 NS5A chimeric replicon (M31), stably replicating replicon cells (s)
[14] = Hepatitis C virus, read-out: 2b (t) (nM), genotype 2b MD2b-1 NS5A chimeric replicon (M31), transiently transfected (t)
[15] = Hepatitis C virus, read-out: 2b (t), transiently transfected (t) into Huh-Lunet cells, activity range
[16] = Hepatitis C virus, read-out: 3a (s) (nM), genotype 3a NS5A chimeric replicon, stable replicon cells (s)
[17] = Hepatitis C virus, read-out: 3a (s), (s), activity range
[18] = Hepatitis C virus, read-out: 3a (t) (nM), genotype 3a NS5A chimeric replicon, transiently transfected (t)
[19] = Hepatitis C virus, read-out: 3a (t), transiently transfected (t) into Huh-Lunet cells, activity range

SMILES | pEC50 [1] | pEC50 [2] | pEC50 ([2]; activity range) | pEC50 [3] | EC50 [3] [nM] | EC50 ([4]; Hepatitis C virus) [nM] | pEC50 [4, 10] | EC50 ([5]; Hepatitis C virus) [nM] | pEC50 [5, 11] | pEC50 [6, 12] | EC50 [6, 13] [nM] | EC50 [6, 14] [nM] | pEC50 [6, 15] | EC50 [7, 16] [nM] | pEC50 [7, 17] | EC50 [8] [nM] | pEC50 [8] | bioavailability [9] [%] | EC50 [7, 18] [nM] | pEC50 [7, 19] | other results
COC(=O)N[C@H](C(=O)N1[C@@H](C)CC[C@H]1c1ncc(-c2ccc3c(c2)COc2cc4c(ccc5nc([C@@H]6CC[C@H](C)N6C(=O)[C@@H](NC(=O)OC)[C@@H](C)OC)[nH]c54)cc2-3)[nH]1)C(C)C [FA, Methyl [(2S)-1-{(2S,5S)-2-[5-(2-{(2S,5S)-1-[N-(methoxycarbonyl)-O-methyl-L-threonyl]-5-methylpyrrolidin-2-yl}-1,11-dihydroisochromeno[4′,3′:6,7]naphtho[1,2-d]imidazol-9-yl)-1H-imidazol-2-yl]-5-methylpyrrolidin-1-yl}-3-methyl-1-oxobutan-2-yl]carbamate] | 10.85 | 10.96 | > 10.00 | > 10.00 | 0.046 | 0.014 | > 10.00 | 0.033 | > 10.00 | 9.00 to 10.00 | 0.13 | 0.036 | > 10.00 | 0.034 | > 10.00 | 0.011 | > 10.00 | 13.5 |  |  | 
COC(=O)N[C@H](C(=O)N1[C@@H](C)CC[C@H]1c1ncc(-c2ccc3c(c2)COc2cc4c(ccc5nc([C@@H]6CC[C@H](C)N6C(=O)[C@@H](NC(=O)OC)C6CCOCC6)[nH]c54)cc2-3)[nH]1)C(C)C [FC, Methyl [(1 S)-2-[(2S,5S)-2-(9-{2-[(2S,5S)-1-{(2S)-2-[(methoxycarbonyl)amino]-3-methylbutanoyl}-5-methylpyrrolidin-2-yl]-1H-imidazol-5-yl}-1,11-dihydroisochromeno[4′,3′:6,7]naphtho[1,2-d]imidazol-2-yl)-5-methylpyrrolidin-1-yl]-2-oxo-1-(tetrahydro-2H-pyran-4-yl)ethyl]carbamate] |  | 10.85 | > 10.00 | > 10.00 | 0.031 | 0.011 | > 10.00 | 0.015 | > 10.00 | > 10.00 | 0.048 | 0.024 | > 10.00 | 0.031 | > 10.00 | 0.011 | > 10.00 |  |  |  | EC50 ([1]; read-out: 1b (nM), stable 1b Con1 RLuc replicon cells, 72 hours): 0.021 nM; Rat % F ([9]; oral bioavailability): 0%
COC[C@H]1C[C@@H](c2nc(Cl)c(-c3ccc4c(c3)COc3cc5c(ccc6nc([C@@H]7CC[C@H](C)N7C(=O)[C@@H](NC(=O)OC)C(C)C)[nH]c65)cc3-4)[nH]2)N(C(=O)[C@H](NC(=O)OC)c2ccccc2)C1 [FY, Methyl {(1R)-2-[(2S,4S)-2-(4-chloro-5-{2-[(2S,5S)-1-{(2S)-2-[(methoxycarbonyl)amino]-3-methylbutanoyl}-5-methylpyrrolidin-2-yl]-1,11-dihydroisochromeno[4′,3′:6,7]naphtho[1,2-d]imidazol-9-yl}-1H-imidazol-2-yl)-4-(methoxymethyl)pyrrolidin-1-yl]-2-oxo-1-phenylethyl}carbamate] | 10.77 | 11.00 | > 10.00 | > 10.00 | 0.017 | 0.007 | > 10.00 | 0.005 | > 10.00 | > 10.00 | 0.034 |  |  | 0.029 | > 10.00 | 0.005 | > 10.00 | 13.5 |  |  | 
COC[C@H]1C[C@@H](c2nc(C3CC3)c(-c3ccc4c(c3)COc3cc5c(ccc6nc([C@@H]7CC[C@H](C)N7C(=O)[C@@H](NC(=O)OC)C(C)C)[nH]c65)cc3-4)[nH]2)N(C(=O)[C@H](NC(=O)OC)c2ccccc2)C1 [FZ, Methyl {(1R)-2-[(2S,4S)-2-(4-cyclopropyl-5-{2-[(2S,5S)-1-{(2S)-2-[(methoxycarbonyl)amino]-3-methylbutanoyl}-5-methylpyrrolidin-2-yl]-1,11-dihydroisochromeno[4′,3′:6,7]naphtho[1,2-d]imidazol-9-yl}-1H-imidazol-2-yl)-4-(methoxymethyl)pyrrolidin-1-yl]-2-oxo-1-phenylethyl}carbamate] | 10.51 | 10.72 | > 10.00 | > 10.00 | 0.048 |  | > 10.00 |  |  |  |  |  |  |  |  | 0.025 | > 10.00 | 18.5 |  |  | pEC50 ([4]; read-out: 2a JFH, genotype 2a JFH-1 replicon (L31 in NS5A), stable cells): 10.60; pEC50 ([5]; read-out: 2a J6 (t), genotype 2a J6 NS5A chimeric replicon (M31), transiently transfected (t) into Huh-Lunet cells): 10.39; pEC50 ([5]; read-out: 2a J6 (t), transiently transfected (t) into Huh-Lunet cells, activity range): > 10.00; pEC50 ([6]; read-out: 2b (s), genotype 2b MD2b-1 NS5A chimeric replicon (M31), stably replicating replicon cells (s)): 10.00; pEC50 ([6]; read-out: 2b (s), stably replicating replicon cells (s), activity range): 9.00 to 10.00; pEC50 ([7]; read-out: 3a (s), (s), activity range): > 10.00; pEC50 ([7]; read-out: 3a (s), genotype 3a NS5A chimeric replicon, stable replicon cells (s)): 10.01
CC[C@H]1CC[C@@H](c2ncc(-c3ccc4c(c3)COc3cc5c(ccc6nc([C@@H]7CC[C@H](C)N7C(=O)[C@@H](NC(=O)OC)C(C)C)[nH]c65)cc3-4)[nH]2)N1C(=O)[C@@H](NC(=O)OC)C1CCOCC1 [HQ] | 10.57 | 10.66 | > 10.00 | > 10.00 | 0.031 | 0.024 | > 10.00 | 0.088 | > 10.00 | 9.00 to 10.00 | 0.233 | 0.079 | > 10.00 | 0.076 | > 10.00 | 0.02 | > 10.00 | 34.3 | 0.049 | > 10.00 | 
COC(=O)N[C@H](C(=O)N1[C@@H](C)CC[C@H]1c1ncc(-c2ccc3c(c2)COc2cc4c(ccc5nc([C@@H]6C[C@@H]7CCC[C@@H]7N6C(=O)[C@@H](NC(=O)OC)C6CCOCC6)[nH]c54)cc2-3)[nH]1)C(C)C [IA] | 10.62 | 10.82 | > 10.00 | > 10.00 | 0.024 | 0.021 | > 10.00 | 0.024 | > 10.00 | > 10.00 | 0.062 | 0.033 | > 10.00 | 0.052 | > 10.00 | 0.019 | > 10.00 | 21.8 | 0.055 | > 10.00 | 
